Data as given in paper PMC5516028, “Molecular tools for GABAA receptors: High affinity ligands for β1-containing subtypes” (Scientific Reports, 2017).
Values joined by “and” are separate entries in the source; they are usually repeats but may differ in a detail not shown here. Identical values can stand only once. Like-named read-outs stand apart in the source and are kept apart here.

Experiments:
Format in all cases: cell-based
α5β3γ2 GABAA receptors = biological target: T1, α5β3γ2 GABAA receptors (Rattus norvegicus, UniProt P19969+P63079); experiment: Two electrode voltage clamp in Xenopus laevis oocytes, α5β3γ2
T1 construct: expressed in transfected cells; host or cells: Xenopus laevis oocytes, mRNA injected
Text: (§1) cDNA’s of rat GABAA receptor subunits α1, α4, β1, β2, β3 and γ2S were cloned as described. cDNAs of the rat subunits α2, α3 and α5 were gifts from P. Malherbe, that of α6 and γ1 were gifts of P. Seeburg and that of δ was a gift of C. Czajkowski. The mutants were constructed using the Q5 Site-Directed Mutagenesis Kit (New England Biolabs) following manufacturer’s instruction. We used the wild-type rat β3-pCI vector as template and the primers […] and […] resulting in a substitution of amino acid N41 (AAC) to R (AGG). We used the wild-type rat β1-pCI vector as template and the primers […] and […] resulting in a substitution of amino acid R41 (CGG) to N (AAC). The mutated subunits were confirmed by sequencing.
(§2) In vitro transcription of mRNA was based on the cDNA expression vectors encoding for rat GABAA receptor subunits α1–6, β1-3, γ1,2, δ and the two β mutants (β1R41N and β3N41R)[40]. After linearizing the cDNA vectors with appropriate restriction endonucleases, the cDNA was purified and concentrated with the DNA Clean and Contentrator ^TM Kit (Zymoresearch, Catalog No. D4005). Capped transcripts of the purified cDNA were produced using the mMESSAGE mMACHINE® T7 transcription kit (Ambion, TX, USA) and polyadenylated using the Ambion PolyA tailing kit (Ambion). After transcription and polyadenylation the RNA was purified with the MEGAclear ^TM Kit (Ambion, Catalog No. AM1908). The final RNA concentration was measured on NanoDrop® ND-1000 and finally diluted and stored in diethylpyrocarbonate-treated water at −80 °C. For the microinjection, the RNA of αβ receptor combinations was mixed at 1:1 ratio (which leads to αβ receptors that consist of predominantly 3 beta and 2 alpha subunits[27]), for αkβlγm (k = 1–3, l = 1, 3, m = 1, 2) receptors at 1:1:5 ratio, for αkβ3γ2 (k = 4–6) and αkβlδ (k = 1, 4 and 6, l = 1, 3) receptor combinations at 3:1:5 ratio.
(§3) Mature female Xenopus laevis (Nasco, WI) were anesthetized in a bath of ice-cold 0.17% Tricain (Ethyl-m-aminobenzoate, Sigma, MO) before decapitation in full accordance with all rules of the Austrian animal protection law (see http://www.ris.bka.gv.at/Dokumente/BgblAuth/BGBLA_2012_I_114/BGBLA_2012_I_114.pdf) and the Austrian animal experiment by-laws (see https://www.ris.bka.gv.at/Dokumente/BgblAuth/BGBLA_2012_II_522/BGBLA_2012_II_522.pdf) which implement the European Directive 2010/63/EU (see http://eur-lex.europa.eu/LexUriServ/LexUriServ.do?uri=OJ:L:2010:276:0033:0079:en:PDF) into the Austrian law (all information accessed on July 27, 2016). The frog’s ovaries were transferred to ND96 medium (96 mM NaCl, 2 mM KCl, 1 mM MgCl2, 5 mM HEPES; pH 7.5). Stage 5–6 oocytes with the follicle cell layer around them were roughly dissected with forceps into packages of 10–15 cells and washed in Ca^2+-free ND96 medium. Cells were then digested with collagenase (type IA, Sigma, NO, 1 mg/mL ND96) at 18 °C shaking at 30 rpm for 30–60 minutes and gently defolliculated with the aid of a glass pipette with appropriate tip diameter and a platinum loop. Defolliculated cells were stored at 18 °C for at least 6 hours in ND96 solution containing penicillin G (10000 IU/100 mL) and streptomycin (10 mg/100 mL) in order to preselect and exclude damaged cells from further treatment. Healthy defolliculated oocytes were injected with an aqueous solution of mRNA. A total of 4.5 ng of mRNA per oocyte was injected with a Nanoject II (Drummond). After injection of mRNA, oocytes were incubated at 18 °C (ND96 + antibiotic) for 2–3 days for αβ receptors and for 3–4 days for αβγ or αβδ receptors before recording. When cells were measured at later time points, oocytes were stored at +4 °C instead of 18 °C.
(§4) For electrophysiological recordings, oocytes were placed on a nylon-grid in a bath of Ca^2+-containing NDE solution medium [96 mM NaCl, 5 mM HEPES-NaOH (pH 7.5), 2 mM KCl, 1 mM MgCl2, 1.8 mM CaCl2].

α3β3 GABAA receptors = biological target: T2, α3β3 GABAA receptors (Rattus norvegicus, UniProt P20236+P63079); experiment: Two electrode voltage clamp in Xenopus laevis oocytes, α3β3
T2 construct: expressed in transfected cells; host or cells: Xenopus laevis oocytes, mRNA injected
Text: as §1, §2, §3, §4

α6β3γ2 GABAA receptors = biological target: T3, α6β3γ2 GABAA receptors (Rattus norvegicus, UniProt P30191+P63079); experiment: Two electrode voltage clamp in Xenopus laevis oocytes, α6β3γ2
T3 construct: expressed in transfected cells; host or cells: Xenopus laevis oocytes, mRNA injected
Text: as §1, §2, §3, §4

α1β3γ2 GABAA receptors = biological target: T4, α1β3γ2 GABAA receptors (Rattus norvegicus, UniProt P62813+P63079); experiment: Two electrode voltage clamp in Xenopus laevis oocytes, α1β3γ2
T4 construct: expressed in transfected cells; host or cells: Xenopus laevis oocytes, mRNA injected
Text: as §1, §2, §3, §4

α3β3γ2 GABAA receptors = biological target: T5, α3β3γ2 GABAA receptors (Rattus norvegicus, UniProt P20236+P63079); experiment: Two electrode voltage clamp in Xenopus laevis oocytes, α3β3γ2
T5 construct: expressed in transfected cells; host or cells: Xenopus laevis oocytes, mRNA injected
Text: as §1, §2, §3, §4

α4β3γ2 GABAA receptors = biological target: T6, α4β3γ2 GABAA receptors (Rattus norvegicus, UniProt P28471+P63079); experiment: Two electrode voltage clamp in Xenopus laevis oocytes, α4β3γ2
T6 construct: expressed in transfected cells; host or cells: Xenopus laevis oocytes, mRNA injected
Text: as §1, §2, §3, §4

α2β3 GABAA receptors = biological target: T7, α2β3 GABAA receptors (Rattus norvegicus, UniProt P23576+P63079); experiment: Two electrode voltage clamp in Xenopus laevis oocytes, α2β3
T7 construct: expressed in transfected cells; host or cells: Xenopus laevis oocytes, mRNA injected
Text: as §1, §2, §3, §4

[1] = read-out: efficacy, % of control current (GABA EC3-5 = 100%), 1 nM
[2] = read-out: efficacy, % of control current (GABA EC3-5 = 100%), 10 nM
[3] = read-out: efficacy, % of control current (GABA EC3-5 = 100%), 100 nM
[4] = read-out: efficacy, % of control current (GABA EC3-5 = 100%), 1 µM
[5] = read-out: efficacy, % of control current (GABA EC3-5 = 100%), 10 µM
[6] = read-out: efficacy, % of control current (GABA EC3-5 = 100%), 300 nM
[7] = read-out: efficacy, % of control current (GABA EC3-5 = 100%), 30 µM

T1 sequence (P19969 32-464 limits assumed): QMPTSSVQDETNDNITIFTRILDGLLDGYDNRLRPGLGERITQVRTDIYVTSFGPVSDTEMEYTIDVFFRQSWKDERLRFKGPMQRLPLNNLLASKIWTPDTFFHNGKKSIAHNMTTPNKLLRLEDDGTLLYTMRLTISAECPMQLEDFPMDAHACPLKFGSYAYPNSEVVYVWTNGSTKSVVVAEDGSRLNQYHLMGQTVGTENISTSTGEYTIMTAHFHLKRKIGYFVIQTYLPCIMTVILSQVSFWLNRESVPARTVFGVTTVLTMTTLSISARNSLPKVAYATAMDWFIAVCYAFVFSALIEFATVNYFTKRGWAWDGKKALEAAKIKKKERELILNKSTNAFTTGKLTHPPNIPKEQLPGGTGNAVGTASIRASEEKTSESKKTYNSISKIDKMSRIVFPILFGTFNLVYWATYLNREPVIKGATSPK
T1 sequence (P63079 26-473): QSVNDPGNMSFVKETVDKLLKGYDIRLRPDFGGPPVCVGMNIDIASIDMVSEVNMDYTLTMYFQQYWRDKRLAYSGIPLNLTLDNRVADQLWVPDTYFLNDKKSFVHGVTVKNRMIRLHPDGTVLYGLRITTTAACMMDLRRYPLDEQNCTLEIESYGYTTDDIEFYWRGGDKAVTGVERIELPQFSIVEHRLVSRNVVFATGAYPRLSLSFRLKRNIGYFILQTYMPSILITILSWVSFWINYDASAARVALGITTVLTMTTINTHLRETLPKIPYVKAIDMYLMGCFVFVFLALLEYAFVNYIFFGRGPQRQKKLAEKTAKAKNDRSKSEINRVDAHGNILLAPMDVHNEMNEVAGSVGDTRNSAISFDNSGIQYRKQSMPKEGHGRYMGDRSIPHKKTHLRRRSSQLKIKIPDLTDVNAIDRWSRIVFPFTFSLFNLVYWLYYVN
T1 sequence (P18508 39-466 partner): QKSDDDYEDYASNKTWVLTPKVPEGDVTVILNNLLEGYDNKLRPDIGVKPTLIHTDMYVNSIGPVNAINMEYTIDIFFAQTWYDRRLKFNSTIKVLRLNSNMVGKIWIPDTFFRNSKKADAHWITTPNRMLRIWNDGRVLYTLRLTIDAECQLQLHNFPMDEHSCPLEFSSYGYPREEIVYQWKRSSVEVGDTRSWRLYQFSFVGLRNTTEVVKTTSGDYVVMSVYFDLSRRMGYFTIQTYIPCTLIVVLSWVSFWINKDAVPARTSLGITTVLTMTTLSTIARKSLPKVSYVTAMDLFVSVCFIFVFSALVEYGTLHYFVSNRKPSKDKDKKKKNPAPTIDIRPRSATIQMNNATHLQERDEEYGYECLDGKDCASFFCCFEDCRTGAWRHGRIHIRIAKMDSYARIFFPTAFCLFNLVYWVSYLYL
T7 sequence (P23576 29-451): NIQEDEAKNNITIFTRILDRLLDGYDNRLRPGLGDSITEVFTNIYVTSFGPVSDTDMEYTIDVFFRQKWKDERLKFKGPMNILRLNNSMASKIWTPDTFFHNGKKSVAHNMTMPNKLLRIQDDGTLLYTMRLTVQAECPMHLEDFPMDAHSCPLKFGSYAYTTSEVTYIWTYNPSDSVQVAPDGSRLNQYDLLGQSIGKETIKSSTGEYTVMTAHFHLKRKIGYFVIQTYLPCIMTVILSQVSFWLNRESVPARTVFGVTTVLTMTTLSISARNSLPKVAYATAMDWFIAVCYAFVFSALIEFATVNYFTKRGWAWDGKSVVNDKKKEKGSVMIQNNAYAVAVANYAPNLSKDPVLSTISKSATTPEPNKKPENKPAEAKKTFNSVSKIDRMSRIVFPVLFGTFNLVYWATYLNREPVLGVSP
T7 sequence (P63079 26-473): as the sequence (P63079 26-473) above
T5 sequence (P20236 29-493): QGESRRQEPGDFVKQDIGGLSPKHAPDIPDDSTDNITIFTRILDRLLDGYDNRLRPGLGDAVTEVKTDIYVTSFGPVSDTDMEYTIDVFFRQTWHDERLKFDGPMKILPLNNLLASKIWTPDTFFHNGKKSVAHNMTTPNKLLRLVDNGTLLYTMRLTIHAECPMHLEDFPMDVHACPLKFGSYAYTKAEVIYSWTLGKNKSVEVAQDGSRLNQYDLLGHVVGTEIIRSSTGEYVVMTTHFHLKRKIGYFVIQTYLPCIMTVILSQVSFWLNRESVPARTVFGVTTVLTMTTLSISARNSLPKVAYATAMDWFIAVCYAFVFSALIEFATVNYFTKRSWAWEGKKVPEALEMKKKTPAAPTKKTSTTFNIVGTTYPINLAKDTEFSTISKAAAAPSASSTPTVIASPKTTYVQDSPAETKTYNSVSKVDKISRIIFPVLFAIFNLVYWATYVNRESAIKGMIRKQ
T5 sequence (P63079 26-473): as the sequence (P63079 26-473) above
T5 sequence (P18508 39-466 partner): as the sequence (P18508 39-466 partner) above
T2 sequence (P20236 29-493): as the sequence (P20236 29-493) above
T2 sequence (P63079 26-473): as the sequence (P63079 26-473) above
T6 sequence (P28471 36-552): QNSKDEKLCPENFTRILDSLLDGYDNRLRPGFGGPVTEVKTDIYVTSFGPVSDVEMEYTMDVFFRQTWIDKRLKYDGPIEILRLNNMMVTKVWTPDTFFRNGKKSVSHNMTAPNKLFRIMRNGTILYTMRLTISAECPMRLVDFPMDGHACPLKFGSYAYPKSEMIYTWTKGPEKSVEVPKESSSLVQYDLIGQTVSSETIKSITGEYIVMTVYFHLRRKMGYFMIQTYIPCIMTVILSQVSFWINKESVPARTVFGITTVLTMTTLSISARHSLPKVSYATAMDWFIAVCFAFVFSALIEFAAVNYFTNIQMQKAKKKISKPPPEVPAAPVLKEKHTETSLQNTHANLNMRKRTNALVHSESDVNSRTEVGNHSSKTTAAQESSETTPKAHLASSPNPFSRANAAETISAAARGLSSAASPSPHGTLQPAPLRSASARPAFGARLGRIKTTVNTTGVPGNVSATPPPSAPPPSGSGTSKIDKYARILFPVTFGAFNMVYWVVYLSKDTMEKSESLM
T6 sequence (P63079 26-473): as the sequence (P63079 26-473) above
T6 sequence (P18508 39-466 partner): as the sequence (P18508 39-466 partner) above
T3 sequence (P30191 20-453): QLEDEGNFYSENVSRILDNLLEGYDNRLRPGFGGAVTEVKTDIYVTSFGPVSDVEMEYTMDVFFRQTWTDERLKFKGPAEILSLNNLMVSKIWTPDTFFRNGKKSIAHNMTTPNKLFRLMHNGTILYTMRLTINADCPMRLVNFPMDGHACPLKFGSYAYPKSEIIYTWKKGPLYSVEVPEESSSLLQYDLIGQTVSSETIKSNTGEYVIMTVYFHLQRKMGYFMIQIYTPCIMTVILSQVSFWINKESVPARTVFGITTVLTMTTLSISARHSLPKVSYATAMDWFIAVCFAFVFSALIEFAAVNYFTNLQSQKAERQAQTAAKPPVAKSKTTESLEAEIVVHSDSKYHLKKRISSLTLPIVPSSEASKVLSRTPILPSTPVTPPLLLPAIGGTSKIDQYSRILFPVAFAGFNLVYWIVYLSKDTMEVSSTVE
T3 sequence (P63079 26-473): as the sequence (P63079 26-473) above
T3 sequence (P18508 39-466 partner): as the sequence (P18508 39-466 partner) above
T4 sequence (P62813 28-455): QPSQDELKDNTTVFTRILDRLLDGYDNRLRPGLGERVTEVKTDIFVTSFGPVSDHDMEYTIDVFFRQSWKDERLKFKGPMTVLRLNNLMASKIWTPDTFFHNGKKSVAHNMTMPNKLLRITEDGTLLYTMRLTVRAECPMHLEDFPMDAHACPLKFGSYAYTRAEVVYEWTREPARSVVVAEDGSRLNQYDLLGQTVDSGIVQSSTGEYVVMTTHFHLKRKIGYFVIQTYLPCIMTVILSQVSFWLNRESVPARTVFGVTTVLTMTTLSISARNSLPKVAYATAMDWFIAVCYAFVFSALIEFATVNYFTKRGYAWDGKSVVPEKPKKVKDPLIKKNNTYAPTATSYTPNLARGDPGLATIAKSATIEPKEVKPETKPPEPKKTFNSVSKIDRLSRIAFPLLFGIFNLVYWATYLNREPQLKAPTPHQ
T4 sequence (P63079 26-473): as the sequence (P63079 26-473) above
T4 sequence (P18508 39-466 partner): as the sequence (P18508 39-466 partner) above

- EC50 (α5β3γ2 GABAA receptors): > 10000 nM
- activity at 0.01 µM (α5β3γ2 GABAA receptors; read-out: efficacy, % of control current (GABA EC3-5 = 100%), α5β3γ2, 10 nM): 89.6 ± 3.1%
- activity at 0.1 µM (α5β3γ2 GABAA receptors; read-out: efficacy, % of control current (GABA EC3-5 = 100%), α5β3γ2, 100 nM): 83.6 ± 4.2%
- activity at 1 µM (α5β3γ2 GABAA receptors; read-out: efficacy, % of control current (GABA EC3-5 = 100%), α5β3γ2, 1 µM): 90.6 ± 5.1%
- activity at 10 µM (α5β3γ2 GABAA receptors; read-out: efficacy, % of control current (GABA EC3-5 = 100%), α5β3γ2, 10 µM): 52.8 ± 6.7%
- EC50 (α3β3 GABAA receptors): 1900 nM
- activity at 0.001 µM (α3β3 GABAA receptors; read-out: efficacy, % of control current (GABA EC3-5 = 100%), α3β3, 1 nM): 103 ± 3.1%
- activity at 1 µM (α3β3 GABAA receptors; read-out: efficacy, % of control current (GABA EC3-5 = 100%), α3β3, 1 µM): 144 ± 6.3%
- EC50 (α6β3γ2 GABAA receptors; co-applied with GABA EC3-5): ~2000 nM and 2300 nM
- activity at 0.001 µM (α6β3γ2 GABAA receptors; [1]): 108 ± 5.9%
- activity at 0.01 µM (α6β3γ2 GABAA receptors; [2]): 120 ± 7.1%
- activity at 0.1 µM (α6β3γ2 GABAA receptors; [3]): 148 ± 8%
- activity at 1 µM (α6β3γ2 GABAA receptors; [4]): 250 ± 18.9%
- activity at 10 µM (α6β3γ2 GABAA receptors; [5]): 394 ± 35%
- EC50 (α1β3γ2 GABAA receptors; co-applied with GABA EC3-5, read-out: EC50): ~1000 nM
- activity at 0.001 µM (α1β3γ2 GABAA receptors; [1]): 100.8 ± 0.6%
- activity at 0.01 µM (α1β3γ2 GABAA receptors; [2]): 103 ± 1.4%
- activity at 0.3 µM (α1β3γ2 GABAA receptors; [6]): 120 ± 4.3%
- activity at 1 µM (α1β3γ2 GABAA receptors; [4]): 145 ± 3.7%
- activity at 3 µM (α1β3γ2 GABAA receptors; read-out: efficacy, % of control current (GABA EC3-5 = 100%), 3 µM): 197 ± 13.7%
- activity at 10 µM (α1β3γ2 GABAA receptors; [5]): 232 ± 7.5%
- activity at 30 µM (α1β3γ2 GABAA receptors; [7]): 137 ± 17.8%
- Emax (α1β3γ2 GABAA receptors; read-out: maximum efficacy / modulatory effects up to): ~200%
- EC50 (α1β3γ2 GABAA receptors; read-out: pEC50 (converted)): 1260 nM
- modulatory effects up to (α3β3γ2 GABAA receptors): ~ 200%
- EC50 (α3β3γ2 GABAA receptors; co-applied with GABA EC3-5): ~1000 nM and 1200 nM
- activity at 0.001 µM (α3β3γ2 GABAA receptors; [1]): 100%
- activity at 0.01 µM (α3β3γ2 GABAA receptors; [2]): 101 ± 1%
- activity at 0.1 µM (α3β3γ2 GABAA receptors; [3]): 108 ± 3.7%
- activity at 0.3 µM (α3β3γ2 GABAA receptors; [6]): 104 ± 4%
- activity at 1 µM (α3β3γ2 GABAA receptors; [4]): 133 ± 4%
- activity at 10 µM (α3β3γ2 GABAA receptors; [5]): 202 ± 23%
- activity at 30 µM (α3β3γ2 GABAA receptors; [7]): 195%
- EC50 (α4β3γ2 GABAA receptors): > 10000 nM
- activity at 0.001 µM (α4β3γ2 GABAA receptors; read-out: efficacy, % of control current (GABA EC3-5 = 100%), α4β3γ2, 1 nM): 99.7 ± 2%
- activity at 0.003 µM (α4β3γ2 GABAA receptors; read-out: efficacy, % of control current (GABA EC3-5 = 100%), α4β3γ2, 3 nM): 111%
- activity at 0.01 µM (α4β3γ2 GABAA receptors; read-out: efficacy, % of control current (GABA EC3-5 = 100%), α4β3γ2, 10 nM): 107 ± 3.4%
- activity at 0.03 µM (α4β3γ2 GABAA receptors; read-out: efficacy, % of control current (GABA EC3-5 = 100%), α4β3γ2, 30 nM): 114%
- activity at 0.1 µM (α4β3γ2 GABAA receptors; read-out: efficacy, % of control current (GABA EC3-5 = 100%), α4β3γ2, 100 nM): 122 ± 4.6%
- activity at 1 µM (α4β3γ2 GABAA receptors; read-out: efficacy, % of control current (GABA EC3-5 = 100%), α4β3γ2, 1 µM): 137 ± 6.7%
- activity at 10 µM (α4β3γ2 GABAA receptors; read-out: efficacy, % of control current (GABA EC3-5 = 100%), α4β3γ2, 10 µM): 104 ± 12.6%
- EC50 (α2β3 GABAA receptors; read-out: EC50): 5100 nM
- activity at 0.001 µM (α2β3 GABAA receptors; read-out: efficacy, % of control current (GABA EC3-5 = 100%), α2β3, 1 nM): 100 ± 0.1%
- activity at 0.1 µM (α2β3 GABAA receptors; read-out: efficacy, % of control current (GABA EC3-5 = 100%), α2β3, 100 nM): 102 ± 1.2%
- activity at 10 µM (α2β3 GABAA receptors; read-out: efficacy, % of control current (GABA EC3-5 = 100%), α2β3, 10 µM): 156 ± 9.7%
Compound: Nc1ccc(-n2nc3c4cc(Cl)ccc4[nH]cc-3c2=O)cc1 [Compound 3, 8-Chloro-2-(4-aminophenyl)-2H-pyrazolo[4,3-c]quinolin-3(5H)-one]
